# Results as given in US20130005718A1 (priority 2009, published 2013).
# Values joined by “and” are separate entries in the source; they are usually repeats but may differ in a detail not shown here. Equal values may be shown once. “Also recorded” adds a separate entry of the source. Read-outs that look alike come from different tables or passages of the source.
# What was measured:
# [1] = target: T1, HCN1 channels (Mus musculus, UniProt O88704); experiment: Two-electrode voltage clamp (TEVC) of HCN1 channel gating in Xenopus oocytes; type: cell-based, murine; conditions: for HCN isoform preference (words): HCN1 versus HCN2, 3 or 4
# T1 construct: expressed in transfected cells; host or cells: Xenopus oocytes (cRNA injection)
# [2] = system: GABAA-Rs; conditions: cited from earlier work
# [3] = in vivo; cited from earlier work
# [4] = system: PNL-induced thermal hyperalgesia; experiment: Hind paw withdrawal latency (HPWL) to heat source after PNL; type: in vivo, C57 Black/6J mice; conditions: i.p., 15% heat stimulus
# [5] = system: PNL-induced mechanical allodynia and hyperalgesia; experiment: Von Frey fiber test after partial sciatic nerve ligation (PNL); type: in vivo, C57 Black/6J mice
# [6] = system: righting reflex; conditions: cited from earlier work
# [7] = cited from earlier work
# [8] = system: righting reflex; conditions: i.p. cumulative up to 60 mg/kg
# [9] = variously reported; cited from earlier work
# [10] = target: HCN3 (Homo sapiens, UniProt Q9P1Z3); conditions: 20 μM, n=6
# Experimental: (§1) cDNA encoding murine (HCN1, 2 and 4) and human (HCN3) HCN channels were subcloned into pGH19 (HCN1 and 4) or pGHE (HCN2 and HCN3) vectors and amplified in STBL2 cells (Invitrogen Corporation, Carlsbad, Calif.). cRNA was transcribed from NheI (HCN1, HCN3 and HCN4) or SphI (HCN2) linearized DNA using T7 RNA polymerase (Message Machine; Ambion, Houston, Tex.). 11-50 ng RNA was injected into each Xenopus oocyte.
# (§2) Recordings were made from Xenopus oocytes 2-5 days after cRNA injection. Cells were maintained in L-15 media without ficoll (Specialty Media, Phillipsburg, N.J.) at 17° C. until use.
# (§3) Two microelectrode voltage clamp (TEVC) data, acquired using a Warner Instruments (Hamden, Conn.) OC-725C amplifier, were recorded with Pulse software (HEKA Elektronik, Lambrecht/Pfalz, Germany) following filtering of the wide bandwidth output of the clamp at 2.5 kHz (with a Frequency Devices 902 8-pole Bessel filter) and digitization at 5 kHz using an ITC-18 interface (Instrutech Corporation, Port Washington, N.Y.).
# (§4) Microelectrodes were fabricated from 1B120-F4 borosilicate glass (World Precision Instruments, Sarasota, Fla.) and had resistances of 0.1-0.5 MΩ (I passing) and 1-4 MΩ (V sensing) when filled with 3 M KCl. The Ag—AgCl ground wire(s) of the active virtual ground circuit were connected to the bath solution by 3M KCl-2% agar salt bridges placed downstream of, but close to, the oocyte. Recordings were obtained at room temperature (22-24° C.).
# [11] = target: HCN2 (Mus musculus, UniProt O88703); conditions: 20 μM, n=6
# Experimental: as §1, §2, §3, §4
# [12] = target: HCN4 (Mus musculus, UniProt O70507); conditions: 20 μM, n=4
# Experimental: as §1, §2, §3, §4
# [13] = HCN1 V1/2 dose-response, relative to 2,6-DTBP
# T1 sequence (O88704 whole entry, canonical isoform): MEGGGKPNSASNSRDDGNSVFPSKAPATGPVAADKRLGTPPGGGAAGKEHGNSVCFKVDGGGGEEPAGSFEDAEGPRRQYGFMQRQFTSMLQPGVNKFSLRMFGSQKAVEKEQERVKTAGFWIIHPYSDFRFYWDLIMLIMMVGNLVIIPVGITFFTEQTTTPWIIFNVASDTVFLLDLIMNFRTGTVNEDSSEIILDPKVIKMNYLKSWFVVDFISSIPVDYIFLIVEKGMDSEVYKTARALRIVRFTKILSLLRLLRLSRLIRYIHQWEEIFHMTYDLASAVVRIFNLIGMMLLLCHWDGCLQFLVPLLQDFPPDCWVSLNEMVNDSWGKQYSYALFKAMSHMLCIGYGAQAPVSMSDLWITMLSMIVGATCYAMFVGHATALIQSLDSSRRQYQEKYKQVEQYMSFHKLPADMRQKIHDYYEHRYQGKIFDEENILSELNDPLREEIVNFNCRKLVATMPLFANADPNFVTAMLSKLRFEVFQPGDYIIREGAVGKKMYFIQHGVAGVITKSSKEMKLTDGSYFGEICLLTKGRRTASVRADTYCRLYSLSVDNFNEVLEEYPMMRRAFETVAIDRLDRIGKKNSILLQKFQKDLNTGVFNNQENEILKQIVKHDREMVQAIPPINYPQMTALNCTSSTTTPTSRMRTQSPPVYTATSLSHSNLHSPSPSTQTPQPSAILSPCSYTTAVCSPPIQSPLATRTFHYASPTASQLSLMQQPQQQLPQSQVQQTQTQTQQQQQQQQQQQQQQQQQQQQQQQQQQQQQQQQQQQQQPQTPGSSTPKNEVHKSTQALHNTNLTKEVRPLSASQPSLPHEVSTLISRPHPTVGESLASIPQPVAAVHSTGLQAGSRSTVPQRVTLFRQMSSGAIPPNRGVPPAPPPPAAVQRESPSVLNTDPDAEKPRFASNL
# HCN3, sequence (Q9P1Z3 whole entry): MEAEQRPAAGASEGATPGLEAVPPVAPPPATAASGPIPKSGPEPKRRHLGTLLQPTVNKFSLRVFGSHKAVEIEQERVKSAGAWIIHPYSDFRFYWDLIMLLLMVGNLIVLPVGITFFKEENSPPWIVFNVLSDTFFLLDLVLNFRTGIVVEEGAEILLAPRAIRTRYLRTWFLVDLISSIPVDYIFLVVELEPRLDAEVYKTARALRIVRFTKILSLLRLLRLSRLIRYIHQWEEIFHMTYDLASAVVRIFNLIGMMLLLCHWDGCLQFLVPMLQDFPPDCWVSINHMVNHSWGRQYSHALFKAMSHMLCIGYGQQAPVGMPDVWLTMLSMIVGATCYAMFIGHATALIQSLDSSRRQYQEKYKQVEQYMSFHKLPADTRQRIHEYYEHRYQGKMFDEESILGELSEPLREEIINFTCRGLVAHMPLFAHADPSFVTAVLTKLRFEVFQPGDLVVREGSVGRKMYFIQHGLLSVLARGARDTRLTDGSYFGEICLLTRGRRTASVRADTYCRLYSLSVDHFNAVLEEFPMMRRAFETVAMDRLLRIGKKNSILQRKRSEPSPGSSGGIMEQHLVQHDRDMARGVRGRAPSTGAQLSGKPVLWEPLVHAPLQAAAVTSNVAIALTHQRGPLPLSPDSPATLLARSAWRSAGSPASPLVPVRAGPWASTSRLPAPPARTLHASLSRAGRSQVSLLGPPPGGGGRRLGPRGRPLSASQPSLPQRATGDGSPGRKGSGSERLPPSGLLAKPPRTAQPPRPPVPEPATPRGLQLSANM
# HCN2, sequence (O88703 whole entry): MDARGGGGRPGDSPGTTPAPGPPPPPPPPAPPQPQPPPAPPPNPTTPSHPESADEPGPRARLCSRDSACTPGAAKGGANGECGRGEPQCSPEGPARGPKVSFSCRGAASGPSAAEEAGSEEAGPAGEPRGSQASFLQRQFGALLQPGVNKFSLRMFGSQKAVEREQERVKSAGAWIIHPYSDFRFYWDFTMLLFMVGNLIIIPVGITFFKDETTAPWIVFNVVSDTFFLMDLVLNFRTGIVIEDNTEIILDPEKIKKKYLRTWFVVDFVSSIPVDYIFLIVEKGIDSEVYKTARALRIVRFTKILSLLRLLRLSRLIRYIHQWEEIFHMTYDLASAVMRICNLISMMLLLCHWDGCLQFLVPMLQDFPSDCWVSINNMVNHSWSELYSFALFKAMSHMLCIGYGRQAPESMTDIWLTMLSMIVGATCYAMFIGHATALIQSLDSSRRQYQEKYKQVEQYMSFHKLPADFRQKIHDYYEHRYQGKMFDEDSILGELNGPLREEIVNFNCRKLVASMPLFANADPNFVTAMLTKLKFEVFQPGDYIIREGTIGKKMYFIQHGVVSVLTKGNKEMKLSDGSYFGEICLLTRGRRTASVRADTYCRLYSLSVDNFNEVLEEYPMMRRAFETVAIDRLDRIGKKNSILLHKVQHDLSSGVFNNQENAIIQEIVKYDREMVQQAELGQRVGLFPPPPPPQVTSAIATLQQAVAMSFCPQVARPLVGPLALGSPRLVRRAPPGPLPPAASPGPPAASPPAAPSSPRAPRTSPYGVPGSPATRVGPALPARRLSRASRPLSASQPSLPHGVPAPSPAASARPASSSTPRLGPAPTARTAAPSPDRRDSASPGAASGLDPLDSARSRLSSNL
# HCN4, sequence (O70507 whole entry): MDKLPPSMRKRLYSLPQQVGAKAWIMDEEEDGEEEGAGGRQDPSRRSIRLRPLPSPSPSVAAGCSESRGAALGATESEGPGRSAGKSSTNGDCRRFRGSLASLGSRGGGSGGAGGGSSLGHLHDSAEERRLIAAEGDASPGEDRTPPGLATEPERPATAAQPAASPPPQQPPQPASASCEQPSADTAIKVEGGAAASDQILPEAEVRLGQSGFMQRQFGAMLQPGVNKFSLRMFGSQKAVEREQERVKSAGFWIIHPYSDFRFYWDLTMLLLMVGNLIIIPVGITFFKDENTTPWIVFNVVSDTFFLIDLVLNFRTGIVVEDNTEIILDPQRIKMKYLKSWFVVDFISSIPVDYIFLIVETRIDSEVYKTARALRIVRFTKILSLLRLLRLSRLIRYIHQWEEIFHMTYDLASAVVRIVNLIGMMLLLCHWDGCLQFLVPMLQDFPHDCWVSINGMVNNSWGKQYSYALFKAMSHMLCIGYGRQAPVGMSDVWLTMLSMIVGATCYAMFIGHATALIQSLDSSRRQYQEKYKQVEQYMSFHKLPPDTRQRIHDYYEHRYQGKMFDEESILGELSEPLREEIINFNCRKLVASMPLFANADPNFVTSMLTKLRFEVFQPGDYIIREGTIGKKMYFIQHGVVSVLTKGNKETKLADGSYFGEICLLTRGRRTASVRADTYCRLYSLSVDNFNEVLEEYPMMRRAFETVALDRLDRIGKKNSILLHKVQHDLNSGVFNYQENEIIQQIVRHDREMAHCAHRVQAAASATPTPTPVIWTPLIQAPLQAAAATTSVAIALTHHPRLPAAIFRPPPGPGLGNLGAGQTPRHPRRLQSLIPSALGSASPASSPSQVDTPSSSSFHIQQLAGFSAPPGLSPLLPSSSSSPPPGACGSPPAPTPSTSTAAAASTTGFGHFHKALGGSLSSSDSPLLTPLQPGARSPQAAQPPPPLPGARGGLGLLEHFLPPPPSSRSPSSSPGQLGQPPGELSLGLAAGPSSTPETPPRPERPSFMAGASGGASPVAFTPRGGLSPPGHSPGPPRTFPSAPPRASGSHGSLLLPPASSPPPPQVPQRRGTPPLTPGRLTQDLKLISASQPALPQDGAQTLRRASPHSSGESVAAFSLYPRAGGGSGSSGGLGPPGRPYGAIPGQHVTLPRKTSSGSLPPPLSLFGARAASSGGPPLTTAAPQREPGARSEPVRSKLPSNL
compound,measurement,setting,value
"CCC(C)c1cccc(C(C)CC)c1O (stereo not shown) [2,6-DSBP, 2,6-di-sec-butylphenol]",HCN1 antagonism,[1],weak HCN1 antagonist
same,"offset of the 2,6-DTBP Hill fit line needed to describe the data",[1]; [13],15 fold
same,allosteric modulation of GABAA-Rs,[2],potent allosteric activators of the chloride channels
same,anesthetic activity,[3],potent anesthetics
CC(C)c1cccc(C(C)C)c1O [propofol],Plasma [propofol] Total,"Engdahl et al., 1998, calculated with MW 178.3",12.3 µM
same,estimated serum free concentration evoking analgesia,estimated from 3 to 10 fold lower doses than anesthesia,0.1 to 0.3 µM
same,CSF concentration required for anesthesia relative to plasma,from Table 2,approximately one-tenth
same,"thermal hyperalgesia, ipsilateral HPWL (words)",[4],powerfully and preferentially relieved neuropathic thermal hyperalgesia; also recorded: relieve the neuropathic behavior; also recorded: selectively ameliorate PNL-induced thermal hyperalgesia
same,"thermal nociception, contralateral HPWL",[4],without significantly altering nociceptive behavior
same,difference between PW IPSI and PW CONTRA,[5]; 20 mg/kg i.p.,significantly reduced
same,PW IPSI response,[5]; 60 mg/kg i.p. cumulative,indistinguishable from the control value of PW CONTRA
same,"effect on PW CONTRA, mechanical nociception",[5]; 20 to 60 mg/kg i.p.,no statistically significant effect
same,neuropathic analgesia occurs at doses lower than hypnosis/anesthesia,[5]; i.p.,3-10 fold and 3 to 10 fold
same,mechanical hyperalgesia/allodynia in ipsilateral paw,"[5]; i.p. cumulative dosing, post-PNL mice",markedly reduced the mechanical hyperalgesia observed in the ipsilateral paw; also recorded: selectively suppresses partial sciatic nerve ligation (PNL)-induced mechanical allodynia and hyperalgesia
same,PW IPSI as a function of control PW CONTRA (ratio) after drug,"[5]; i.p., 2.5 to 4 g fibers averaged, 3.3 before drug, unity = complete amelioration",1.6
same,reversal of the neuropathic phenotype,"[5]; subhypnotic i.p. doses, 2.5 to 4 g fibers averaged",about 75%
same,"mechanical threshold, Logit transformation (allodynia, words)",[5]; threshold set at PW of 0.1,selectively restored the mechanical threshold to that observed in the uninjured paw
same,i.p. dose required for obviation of righting reflex,[6]; i.p.,greater than 100 mg/kg
same,intravenous dose for anesthesia,"[6]; mice, i.v.",5 mg/kg
same,Plasma [propofol] Total,"[7]; Engdahl et al., 1998",2.2 µg/mL
same,steady-state free concentration in the plasma,[7]; during general anesthesia,~1 µM
same,EC50,"[1]; EC50 for hyperpolarization of V1/2 of HCN1 gating (Hill fit), 20 min incubation, Xenopus oocytes, TEVC",7 to 13 µM and 13 µM and ~13 µM
same,HCN isoform preference (words),[1],"preferentially inhibits HCN1 with little efficacy against HCN2, 3 or 4 channels"
same,apparent stoichiometry h (Hill coefficient),[1]; Hill fit of dose-response,1.1
same,concentration at which shift in HCN1 V1/2 was significant,[1]; versus DMSO control,≥ 3 µM
same,loss of righting reflex,[8],No animals lost their righting reflex
same,aqueous solubility limit,[9],864 to 1740 µM
same,ΔV1/2 of HCN3,[10],−0.6 mV
same,ΔV1/2 of HCN2,[11],−9.1 mV
same,ΔV1/2 of HCN4,[12],0.1 mV
"CC(C)(C)c1ccc(O)c(C(C)(C)C)c1 [2,4-DTBP, 2,4-di-tert-butylphenol]",HCN1 antagonism,[1],effective antagonist of HCN1
same,"offset of the 2,6-DTBP Hill fit line needed to describe the data",[1],2 fold
same,HCN isoform preference (words),[1],"preferentially inhibit HCN1 with little efficacy against HCN2, 3 or 4 channels"
same,allosteric modulation of GABAA-Rs,[2],ineffective
"CCC(C)c1ccc(O)c(C(C)CC)c1 (stereo not shown) [2,4-DSBP, 2,4-di-sec-butylphenol]","offset of the 2,6-DTBP Hill fit line needed to describe the data",[1]; [13],23 fold
same,allosteric modulation of GABAA-Rs,[2],effective agonist of GABAA-Rs; also recorded: potent allosteric activators of the chloride channels
same,anesthetic activity,[3],potent anesthetics
